Results as given in patent publication US20260152533A1, “COMBINATION INHIBITORS FOR TREATING FIBROSIS” (Memorial Sloan-Kettering Cancer Center, priority 2021, published 2026).

Legend:
Assay type in all cases: cell-based, mouse
NIH-3T3 cells [1] = assay: Growth experiments, NIH-3T3 cells; settings: for rescue of TGFβ-induced growth defect: TGFβ, 0.2, 1 or 5 mM metabolite
Source text: NIH-3T3 cells were obtained from ATCC (CRL-1658); 293 T cells were obtained from ATCC (CRL-3216). PSCs were isolated from C57BL/6 mice by differential centrifugation as previously described^49 and their mesenchymal origin was validated by analyzing the expression of various mesenchymal and epithelial markers. MFBs were isolated from FVB/N mice by differential centrifugation as previously described^50. DB7 mouse breast cancer cells were obtained from Alexander Borowsky (University of California Davis Comprehensive Cancer Center, Sacramento, CA, USA) through an MTA to Ohio State University (OSU). KPC (Kras^LSL-G12D; Trp53^LSL-R172H; Pdx1-Cre) mouse PDAC cells were a gift from Scott Lowe (Memorial Sloan Kettering Cancer Center. (MSKCC)). All cells were cultured at 37° C. in 5% carbon dioxide (CO2) and 20% oxygen (O2) and were maintained in Dulbecco's Modified Eagles medium (DMEM) (25 mM D-glucose, 2 mM L-glutamine) supplemented with 10% fetal bovine serum (FBS) (Gemini), 100 units/ml penicillin and 100 μg/ml streptomycin. Primary PSC and MFB cells were kept in culture for no more than ten passages. Experiments with iCAFs and myCAFs were performed as previously described^29. In brief, qPSCs were generated by culturing PSCs in a dome of GFR Matrigel (Corning) in DMEM; iCAFs were generated by culturing PSCs in a dome of GFR Matrigel in DMEM conditioned by KPC cells for 48 h; myCAFs were generated by monolayer culture of PSCs. Differentiation was validated by analyzing the expression of iCAF/myCAF markers^29. For experiments with different glutamine concentrations, cells were seeded in regular DMEM and the medium was changed 5-6 hours later or the following day to glucose and glutamine-free DMEM supplemented with 10% dialyzed FBS (Gemini) and 20 mM D-glucose, 2 mM L-glutamine (100%), 0.4 mM L-glutamine (20%) or 0.2 mM L-glutamine (10%). All media were prepared by the Media Preparation Facility at MSKCC. Cells were verified as mycoplasma-free by the MycoAlert Mycoplasma Detection Kit (Lonza).
A total of 0.2×10^5 cells/well were plated in 24-well culture plates and media was changed and treatments started 5-6 hours later. Cell numbers at the start of treatment (day 0 “d 0”) and 1, 2 and 3 days later were counted using the Multisizer 4e (Beckman) and normalized to the cell number at d 0. In co-culture assays, a fraction of the cell population was analyzed by flow cytometry for GFP expression, and the rest counted with the Multisizer 4e. The number of KPC-GFP cells was determined by multiplying the fraction of GFP+ cells with the total number of cells.

NIH-3T3 cells [2] = assay: Quantification of gene expression (qPCR), fibroblasts; settings: for Col1a1 mRNA expression: PC-deleted cells, 10% Gln, 48 hours (FIG. 5D, FIG. 11N)
Experimental: Total RNA was isolated from fibroblasts with Trizol (Life Technologies) according to the manufacturer's instructions, and […] RNA was used for cDNA synthesis using iScript (Bio-Rad). Real-time qPCR analysis was performed in technical triplicates using 1:40 diluted cDNAs and 0.1 μM forward and reverse primers together with Power SYBR Green (Life Technologies) in a QuantStudio 7 Flex (Applied Biosystems). Gene expression was quantified in Microsoft Excel 365 as relative expression ratio using primer efficiencies calculated by a relative standard curve. The geometric mean of the endogenous control genes 18 s, Actb and Rplp0 was used as reference sample.

NIH-3T3 cells [3] = assay: tRNA charging assay, NIH-3T3 cells
Experimental: Charging status of the indicated tRNA isodecoders was measured as previously described^20. In brief, Trizol-chloroform extracts were precipitated with 2.7× volumes of cold ethanol in the presence of 30 μg GlycoBlue (ThermoFisher) overnight. Samples were resuspended in 0.3 M acetate buffer (pH 4.5) with 10 mM ethylenediamine tetraacetic acid (EDTA) and precipitated overnight. Samples were resuspended in 10 mM acetate buffer with 1 mM EDTA. 2 μg of each RNA sample was treated with 10 mM of either sodium periodate (Sigma) (‘oxidized sample’) or sodium chloride (‘non-oxidized sample’) and incubated for 20 minutes at room temperature in the dark. Reactions were quenched with glucose for 15 minutes. Yeast Phe-tRNA (Sigma) was spiked into each sample, followed by ethanol precipitation. Samples were resuspended in 50 mM Tris buffer (pH 9) and incubated for 50 minutes at 37° C., quenched with acetate buffer and precipitated. […] Reverse transcription was performed with SuperScript IV reverse transcriptase (Thermo Scientific) according to the manufacturer's instructions, with a primer complementary to the DNA adaptor. cDNA samples were subjected to qPCR with tRNA isodecoder-specific primer pairs listed in Supplementary Table 1. Ct values obtained with primers specific for yeast Phe-tRNA were subtracted from Ct values obtained with isodecoder-specific primers. The charged fraction was calculated based on the relative difference between the delta-Ct value of a non-oxidized (representing total) and oxidized (representing charged) sample for each primer pair.

NIH-3T3 cells [4] = assay: Translation assay (OPP), NIH-3T3 cells; settings: TGFβ
Experimental: Cells were treated as indicated and incubated with 20 μM O-propargyl-puromycin (OPP, Thermo Scientific) for the last 1 hour of the experiment. Cells were harvested by trypsinization and fixed with methanol at −20° C., followed by permeabilization with 0.5% Triton X-100 in phosphate-buffered saline (PBS).

Row | Molecule | rescue of TGFβ-induced growth defect (NIH-3T3 cells [1]; 10% Gln, 3 days) | Col1a1 mRNA expression (NIH-3T3 cells [2]) | charging of glutamine-tRNA (NIH-3T3 cells [3]; 10% Gln, TGFβ 2 ng/mL, dm-αKG 5 mM with or without MSO 2 mM, 48 hours (FIG. 2A)) | translation (NIH-3T3 cells [4]; 10% Gln, dm-αKG (FIG. 2B)) | charging state of glutamine-tRNA (NIH-3T3 cells [3]; low Gln (10%), TGFβ, 48 hours (FIG. 1D)) | cell proliferation (NIH-3T3 cells [1]; 10% Gln, TGFβ) | cell proliferation (NIH-3T3 cells [1]; 100% and 50% Gln, TGFβ 2 ng/mL, 3 days) | PC transcript levels (NIH-3T3 cells [2]; all fibroblast types analysed, 100% Gln, TGFβ 24 hours) | bulk translation (NIH-3T3 cells [4]; low Gln (10%), 48 hours, compared to control cells (FIG. 1F))
1 | COC(=O)CC[C@H](N)C(=O)OC [dm-Glu, L-glutamic acid dimethylester] | sufficient to restore | rescued | – | – | – | – | – | – | –
2 | COC(=O)CCC(=O)C(=O)OC [dm-αKG, dimethyl alpha-ketoglutarate] | able to rescue | rescued | restored | promoted | – | – | – | – | –
3 | TGFβ: transforming growth-factor beta; TGFβ-1 purchased from Peprotech | – | – | – | – | profound uncharging | ceased to proliferate | did not change | reduced | reduced
